# In the supplement of paper PMC10307832:
# Assays:
# Assay in all cases: relative viability (nuclei count vs DMSO), 5 days (fraction); higher = more cells survive
# [1] = compound: CC1=C(C(=NN1)C)CC2=C(C3=C(S2)N(C(=O)N(C3=O)C)CC(C)C)C(=O)N4C[C@@H](CO4)O + O=C(c1cc(Cc2n[nH]c(=O)c3ccccc23)ccc1F)N1CCN(C(=O)C2CC2)CC1 [Olaparib] (partner 8 µM)
# Method in brief: (§1)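 Lung cancer cell lines in 1536-well plates got either a single drug or a fixed anchor-drug dose together with five library-drug doses (not always all listed) in √10 steps, by pin tool, on the day after seeding. Nuclei were counted after 5 days, and relative viability is the treated-to-vehicle ratio of nuclei counts. Values are medians of duplicate plates.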
# IDH-C35 + OSI-027 = compound: Cc1ccccc1C(C(=O)NC1CCCCC1)N(C(=O)Cn1ccnc1C)c1cccc(F)c1 [IDH-C35] + COc1cccc2cc(-c3nc([C@H]4CC[C@H](C(=O)O)CC4)n4ncnc(N)c34)[nH]c12 [OSI-027] (partner 0.5 µM)
# Method in brief: as §1
# IDH-C35 + Trametinib = compound: Cc1ccccc1C(C(=O)NC1CCCCC1)N(C(=O)Cn1ccnc1C)c1cccc(F)c1 [IDH-C35] + CC(=O)Nc1cccc(-n2c(=O)n(C3CC3)c(=O)c3c(Nc4ccc(I)cc4F)n(C)c(=O)c(C)c32)c1 [Trametinib] (partner 0.02 µM)
# Method in brief: as §1
# IDH-C35 + Crizotinib = compound: Cc1ccccc1C(C(=O)NC1CCCCC1)N(C(=O)Cn1ccnc1C)c1cccc(F)c1 [IDH-C35] + C[C@@H](Oc1cc(-c2cnn(C3CCNCC3)c2)cnc1N)c1c(Cl)ccc(F)c1Cl [Crizotinib] (partner 1 µM)
# Method in brief: as §1
Cell Line,relative viability ([1]; first compound 0.0025 µM),relative viability ([1]; first compound 0.007906 µM),relative viability ([1]; first compound 0.025 µM),relative viability ([1]; first compound 0.07906 µM),relative viability ([1]; first compound 0.25 µM),relative viability (IDH-C35 + OSI-027; first compound 0.08 µM),relative viability (IDH-C35 + OSI-027; first compound 0.253 µM),relative viability (IDH-C35 + OSI-027; first compound 0.8 µM),relative viability (IDH-C35 + OSI-027; first compound 2.53 µM),relative viability (IDH-C35 + OSI-027; first compound 8 µM),relative viability (IDH-C35 + Trametinib; first compound 0.08 µM),relative viability (IDH-C35 + Trametinib; first compound 0.253 µM),relative viability (IDH-C35 + Trametinib; first compound 0.8 µM),relative viability (IDH-C35 + Trametinib; first compound 2.53 µM),relative viability (IDH-C35 + Trametinib; first compound 8 µM),relative viability (IDH-C35 + Crizotinib; first compound 0.08 µM),relative viability (IDH-C35 + Crizotinib; first compound 0.253 µM),relative viability (IDH-C35 + Crizotinib; first compound 0.8 µM),relative viability (IDH-C35 + Crizotinib; first compound 2.53 µM),relative viability (IDH-C35 + Crizotinib; first compound 8 µM)
NCI-H23,0.39,0.322,0.311,0.339,0.376,0.582,0.635,0.558,0.392,0.453,0.347,0.456,0.282,0.392,0.325,0.488,0.654,0.488,0.507,0.432
LCLC-97TM1,0.492,0.519,0.404,0.38,0.414,0.557,0.614,0.508,0.447,0.421,0.183,0.2,0.21,,0.243,0.366,0.281,0.291,,0.293
EPLC-272H,0.69,0.778,0.771,0.844,1.09,0.26,0.282,0.268,0.273,0.257,0.259,0.308,0.324,,0.257,1.09,0.805,0.855,,1.03
NCI-H1915,0.259,0.251,0.266,0.249,0.255,0.645,0.602,0.62,0.597,0.56,0.316,0.315,0.275,0.278,0.276,0.855,0.865,0.805,0.904,0.917
NCI-H2405,0.876,0.806,0.885,0.749,0.875,0.651,0.651,0.622,0.567,0.621,0.66,0.679,0.59,0.58,0.589,0.837,0.841,0.852,0.829,0.797
NCI-H322M,0.448,0.726,0.702,0.659,0.736,0.585,0.566,0.628,0.549,0.511,0.451,0.485,0.55,0.488,0.507,0.863,0.961,0.91,0.931,1.02
NCI-H2170,0.582,0.636,0.676,0.597,0.666,0.669,0.661,0.739,0.71,0.676,0.855,0.864,0.882,0.85,0.93,1.25,1.2,1.14,1.17,1.22
NCI-H358,0.596,0.557,0.625,0.605,0.684,0.776,0.757,0.698,0.775,0.756,0.132,0.152,0.128,0.159,0.144,0.67,0.516,0.559,0.505,0.589
NCI-H838,0.741,0.714,0.639,0.65,0.604,0.406,0.402,0.369,0.383,0.398,0.579,0.505,0.508,0.507,0.503,0.834,0.787,0.812,0.77,0.799
CAL-12T,0.732,0.704,0.67,0.755,0.772,0.642,0.759,0.667,0.704,0.489,0.389,0.434,0.371,0.36,0.354,0.556,0.792,0.682,0.603,0.603
